{"source": "patent US4235881A", "about": "“Method for producing high potency factor VIII” (priority 1978, dated 1980)", "origin": "cited, not measured here", "test_system": "Factor VIII", "settings": "hemophiliacs having diminished ability to synthesize Factor VIII"}
{"substance": "1-Deamino-8-D-Arginine Vasopressin [dDAVP]", "values": [{"measurement": "ability to synthesize Factor VIII", "value": "increased to normal levels"}]}
